This note sets out measurements from patent US20230303553A1, “CDK6/DYRK2 DUAL-TARGET INHIBITOR, AND PREPARATION METHOD THEREFOR AND USE THEREOF” (JIANGSU TASLY DIYI PHARMACEUTICAL CO., LTD., priority 2021, published 2023).

The subject of assay [1] is human breast cancer (MCF-7). Put plainly: MTT cancer cell proliferation, MCF-7. The settings on record: MCF7, MTT, 72 hours, read-out: IC50 proliferation MCF-7. It counts as cell-based.
The subject of assay [2] is triple negative breast cancer (MDA-MB-231) cell line. Put plainly: MTT cancer cell proliferation, MDA-MB-231. The assay is classed as cell-based. The note with it: Homo sapiens, MDA-MB-231, read-out: IC50 proliferation MDA-MB-231; MTT, 72 hours.
In assay [3] the test system is multiple myeloma (RPMI8226) cell line. The assay is described as follows: MTT cancer cell proliferation, RPMI8226. It counts as cell-based. The note with it: Homo sapiens, RPMI-8226; MTT, 72 hours; read-out: IC50 proliferation RPMI8226.
Assay [4] has as its system leukemia (K562) cell line. The assay is described as follows: MTT cancer cell proliferation, K562. It counts as cell-based. The settings on record: Homo sapiens, K562; MTT, 72 hours; read-out: IC50 proliferation K-562.
Assay [5] deals with gastric cancer (MGC-803) cell line. Put plainly: MTT cancer cell proliferation, MGC-803. The settings on record: Homo sapiens, MGC-803; MTT, 72 hours; read-out: IC50 proliferation MGC-803. The assay is classed as cell-based.
For assay [6], the system named is ovarian cancer (SK-OV-3) cell line. Put plainly: MTT cancer cell proliferation, SK-OV-3. The assay is classed as cell-based. The settings on record: Homo sapiens, SK-OV-3; MTT, 72 hours; read-out: IC50 proliferation SK-OV-3.
In assay [7] the test system is colon cancer (HT-29) cell line. Put plainly: MTT cancer cell proliferation, HT-29. The assay is classed as cell-based. The note with it: Homo sapiens, HT-29; MTT, 72 hours; read-out: IC50 proliferation HT-29.
Assay [8] deals with liver cancer (HepG2) cell line. Put plainly: MTT cancer cell proliferation, HepG2. The settings on record: Homo sapiens, HepG2; MTT, 72 hours; read-out: IC50 proliferation HepG2. The assay is classed as cell-based.
For assay [9], the system named is non-small cell lung cancer (NCI-H1299) cell line. Put plainly: MTT cancer cell proliferation, NCI-H1299. The assay is classed as cell-based. The note with it: Homo sapiens, NCI-H1299; MTT, 72 hours; read-out: IC50 proliferation NCI-H1299.
Another assay deals with lung cancer (A-549). The assay is described as follows: MTT cancer cell proliferation, A-549. The settings on record: Homo sapiens, A549; MTT, 72 hours; read-out: IC50 proliferation A-549. The assay is classed as cell-based.
The test system of assay [10] is pancreatic cancer (Panc-1) cell line. The assay is described as follows: MTT cancer cell proliferation, Panc-1. The settings on record: Homo sapiens, PANC-1; MTT, 72 hours; read-out: IC50 proliferation Panc-1. It counts as cell-based.
For assay [11], the system named is human glioma (U251) cell line. The assay is described as follows: MTT cancer cell proliferation, U251. The note with it: U-251, MTT, 72 hours, read-out: IC50 proliferation U251. The assay is classed as cell-based.
For assay [12], the system named is prostate cancer (Du-145) cell line. Put plainly: MTT cancer cell proliferation, Du-145. It counts as cell-based. The note with it: Homo sapiens, DU-145; MTT, 72 hours; read-out: IC50 proliferation Du-145.
For assay [13], the system named is prostate cancer (PC-3) cell line. The assay is described as follows: MTT cancer cell proliferation, PC-3. The settings on record: Homo sapiens, PC-3; MTT, 72 hours; read-out: IC50 proliferation PC-3. The assay is classed as cell-based.
Assay [14] relates to xenografts of human lung cancer A549. The assay is described as follows: Human lung cancer A549 xenografts in nude mice. The assay is classed as in vivo, BALB/c nude mice. The settings on record: A549 xenograft, 150 mg/kg intragastric once every 2 days, 21 days. (In xenograft studies the graft and the host belong to different species.)
Assay [15] relates to xenografts of human prostate cancer PC3. Put plainly: Human prostate cancer PC-3 xenografts in nude mice. The assay is classed as in vivo, BALB/c nude mice. The note with it: PC-3 xenograft, 100 mg/kg intragastric once every day, 28 days.
The next assay has as its target CDK6 kinase (Homo sapiens (Human), UniProt Q00534). The assay is described as follows: CDK6 kinase activity, Lance Ultra TR-FRET. It counts as biochemical. (TR-FRET usually uses a lanthanide donor and a delayed reading to cut background.)
The target in the next assay is DYRK2 kinase (Homo sapiens (Human), UniProt Q92630). The assay is described as follows: DYRK2 kinase activity, 33P-ATP / Woodtide substrate. The assay is classed as biochemical.

Molecules are shown by their SMILES. Counter-ions that a name gives are not always drawn. Some results are limits rather than exact numbers.

Chain of DYRK2 kinase (Q92630 whole entry): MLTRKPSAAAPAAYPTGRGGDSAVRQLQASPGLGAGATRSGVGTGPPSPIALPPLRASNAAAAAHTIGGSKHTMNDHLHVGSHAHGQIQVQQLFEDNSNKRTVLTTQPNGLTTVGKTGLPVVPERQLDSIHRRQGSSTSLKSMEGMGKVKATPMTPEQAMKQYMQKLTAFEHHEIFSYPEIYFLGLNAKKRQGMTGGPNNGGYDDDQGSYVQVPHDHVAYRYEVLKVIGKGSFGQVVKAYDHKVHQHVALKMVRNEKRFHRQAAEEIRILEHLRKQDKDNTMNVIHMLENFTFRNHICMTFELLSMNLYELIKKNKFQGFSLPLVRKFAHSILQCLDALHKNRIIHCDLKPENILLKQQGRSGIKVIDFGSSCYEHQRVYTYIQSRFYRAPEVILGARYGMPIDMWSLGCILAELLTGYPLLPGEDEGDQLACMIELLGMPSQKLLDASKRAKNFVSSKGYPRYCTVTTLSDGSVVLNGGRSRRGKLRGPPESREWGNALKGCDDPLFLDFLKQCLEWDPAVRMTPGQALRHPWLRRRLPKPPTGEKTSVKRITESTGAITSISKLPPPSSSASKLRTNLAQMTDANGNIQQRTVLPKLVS
Chain of CDK6 kinase (Q00534 whole entry): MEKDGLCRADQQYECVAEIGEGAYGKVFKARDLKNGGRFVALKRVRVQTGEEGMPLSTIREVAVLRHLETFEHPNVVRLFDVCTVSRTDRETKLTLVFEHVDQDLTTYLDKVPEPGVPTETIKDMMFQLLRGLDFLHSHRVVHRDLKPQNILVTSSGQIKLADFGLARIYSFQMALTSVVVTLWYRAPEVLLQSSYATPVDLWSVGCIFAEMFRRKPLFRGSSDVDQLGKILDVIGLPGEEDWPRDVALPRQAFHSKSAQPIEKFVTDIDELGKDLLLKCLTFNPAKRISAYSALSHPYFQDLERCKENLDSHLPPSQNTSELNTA
Chain of CDK6 kinase (P24385 whole entry partner): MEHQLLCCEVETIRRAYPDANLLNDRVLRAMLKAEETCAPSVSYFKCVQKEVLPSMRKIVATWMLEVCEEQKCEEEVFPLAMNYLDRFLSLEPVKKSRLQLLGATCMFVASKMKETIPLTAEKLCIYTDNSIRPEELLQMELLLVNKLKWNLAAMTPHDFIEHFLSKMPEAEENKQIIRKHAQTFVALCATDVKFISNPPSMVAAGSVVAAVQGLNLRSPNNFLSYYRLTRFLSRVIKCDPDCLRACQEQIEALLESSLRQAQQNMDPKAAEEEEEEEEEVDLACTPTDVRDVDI

Take `CC(=O)c1c(C)c2cnc(Nc3ccc(N4CCNCC4)cn3)nc2n(C2CCCC2)c1=O` [Palbociclib, reference compound]: the IC50 stood at 4.49 µM in assay [1]; 4.37 µM in [2]; 2310 nM in assay [3]; 2020 nM in [4]; 4.45 µM in [5]; 4.01 µM in assay [6]. Besides, the IC50 in assay [7] was determined as 3.84 µM; in assay [8] it was 4.14 µM; in assay [9], 4.2 µM; with lung cancer (A-549), 4.23 µM; in assay [10] it was 4.16 µM; in assay [11] it was 4.35 µM. Moreover, the IC50 in assay [12] and in assay [13] was 4.57 µM each time. Besides, the results for the “relative tumor proliferation rate T/C(%)” value in assay [14] and in assay [15] were 39.6% and 35.5%, respectively. In addition, the entries for the “tumor growth inhibition rate” value in assay [14] and in assay [15] were 60.4% and 64.5%, respectively.

Take `Fc1cnc(Nc2ccc(N3CCNCC3)cn2)nc1-c1ccc2ncsc2c1` [Example 8, 4-(benzothiazole-6-yl)-5-fluoro-N-(5-(piperazine-1-yl)pyridine-2-yl)pyrimidine-2-amine hydrochloride]: the results for the IC50 against CDK6 kinase and on DYRK2 kinase were 129 nM and 85 nM, respectively.

In the case of `CCN1CCN(Cc2ccc(Nc3ncc(F)c(-c4ccc5nc(N(CC)CC)sc5c4)n3)nc2)CC1` [Example 43], the IC50 was found to be 15 nM against CDK6 kinase and 197 nM against DYRK2 kinase.

With `CCN(CC)c1nc2ccc(-c3nc(Nc4ccc(CN5CCNCC5)cn4)ncc3F)cc2s1` [Example 45, N,N-diethyl-6-(5-fluoro-2-((5-(piperazine-1-ylmethyl)pyridine-2-yl)amino)pyrimidine-4-yl)benzothiazole-2-amine hydrochloride], the IC50 turned out to be 45 nM on CDK6 kinase and 290 nM on DYRK2 kinase.

`CN(C)c1nc2ccc(-c3nc(Nc4ccc(CN5CCNCC5)cn4)ncc3F)cc2s1` [Example 33, 6-(5-fluoro-2-((5-(piperazine-1-ylmethyl)pyridine-2-yl)amino)pyrimidine-4-yl)-N,N-dimethylbenzothiazole-2-amine hydrochloride] came in with an IC50 against CDK6 kinase of 59 nM.

`CCN(CC)c1nc2ccc(-c3nc(Nc4ccc(CN5CCN(S(C)(=O)=O)CC5)cn4)ncc3F)cc2s1` [Example 48, N,N-diethyl-6-(5-fluoro-2-((5-((4-(methanesulfonyl)piperazine-1-yl)methyl)pyridine-2-yl)amino)pyrimidine-4-yl)benzothiazole-2-amine] came in with an IC50 on CDK6 kinase above 10000 nM.

As to `CC(C)N1CCN(Cc2ccc(Nc3ncc(F)c(-c4ccc5nc(N(C)C)sc5c4)n3)nc2)CC1` [Example 36, 6-(5-fluoro-2-((5-((4-isopropylpiperazine-1-yl)methyl)pyridine-2-yl)amino)pyrimidine-4-yl)-N,N-dimethylbenzothiazole-2-amine], on CDK6 kinase, the IC50 worked out at 142 nM.

In the case of `CCOC(=O)N1CCN(Cc2ccc(Nc3ncc(F)c(-c4ccc5ncsc5c4)n3)nc2)CC1` [Example 10, ethyl 4-((6-((4-(benzothiazole-6-yl)-5-fluoropyrimidine-2-yl)amino)pyridine-3-yl)methyl)piperazine-1-carboxylate], at CDK6 kinase, the IC50 is 169 nM.

Regarding `CCN1CCN(C(=O)c2ccc(Nc3ncc(F)c(-c4ccc5ncsc5c4)n3)nc2)CC1` [Example 1, (6-((4-(benzothiazole-6-yl)-5-fluoropyrimidine-2-yl)amino)pyridine-3-yl)(4-ethylpiperazine-1-yl)ketone], on CDK6 kinase, the IC50 is 144 nM.

The molecule `CN(C)c1nc2ccc(-c3nc(Nc4ccc(N5CCNCC5)cn4)ncc3F)cc2s1` [Example 41, 6-(5-fluoro-2-((5-(piperazine-1-yl)pyridine-2-yl)amino)pyrimidine-4-yl)-N,N-dimethylbenzothiazole-2-amine hydrochloride] showed an IC50 on CDK6 kinase of 61 nM.

As for `CCN1CCN(Cc2ccc(Nc3ncc(F)c(-c4ccc5ncsc5c4)n3)nc2)CC1` [Example 2, 4-(benzothiazole-6-yl)-N-(5-((4-ethylpiperazine-1-yl)methyl)pyridine-2-yl)-5-fluoropyrimidine-2-amine], the IC50 against CDK6 kinase was 244 nM.

For the molecule `CC(C)N1CCN(Cc2ccc(Nc3ncc(F)c(-c4ccc5ncsc5c4)n3)nc2)CC1` [Example 11, 4-(benzothiazole-6-yl)-5-fluoro-N-(5-((4-isopropylpiperazine-1-yl)methyl)pyridine-2-yl)pyrimidine-2-amine], the IC50 at CDK6 kinase amounted to 175 nM; on DYRK2 kinase it was 263 nM.

For `CC(C)(C)OC(=O)N1CCN(Cc2ccc(Nc3ncc(F)c(-c4ccc5ncsc5c4)n3)nc2)CC1` [Example 3, tert-butyl 4-((6-((4-(benzothiazole-6-yl)-5-fluoropyrimidine-2-yl)amino)pyridine-3-yl)methyl)piperazine-1-carboxylate], the IC50 against CDK6 kinase stood at 272 nM.

`Cc1nc2ccc(-c3nc(Nc4ccc(C(=O)N5CCNCC5)cn4)ncc3F)cc2s1` [Example 17, (6-((5-fluoro-4-(2-methylbenzothiazole-6-yl)pyrimidine-2-yl)amino)pyridine-3-yl)(piperazine-1-yl)ketone hydrochloride]: the IC50 at CDK6 kinase worked out at 93 nM; on DYRK2 kinase, 27 nM.

On to `CC(C)N1CCN(C(=O)c2ccc(Nc3ncc(F)c(-c4ccc5nc(N(C)C)sc5c4)n3)nc2)CC1` [Example 39, (6-((4-(2-(dimethylamino)benzothiazole-6-yl)-5-fluoropyrimidine-2-yl)amino)pyridine-3-yl)(4-isopropylpiperazine-1-yl)ketone], for which the IC50 came to 57 nM against CDK6 kinase and 16 nM on DYRK2 kinase.

In turn, `CN(C)c1nc2ccc(-c3nc(Nc4ccc(CN5CCN(C(=O)OC(C)(C)C)CC5)cn4)ncc3F)cc2s1` [Example 32, tert-butyl 4-((6-((4-(2-(dimethylamino)benzothiazole-6-yl)-5-fluoropyrimidine-2-yl)amino)pyridine-3-yl)methyl)piperazine-1-carboxylate] returned an IC50 against CDK6 kinase above 10000 nM.

As for `CCN1CCN(Cc2ccc(Nc3ncc(F)c(-c4ccc5nc(N(C)C)sc5c4)n3)nc2)CC1` [Example 30, 6-(2-((5-((4-ethylpiperazine-1-yl)methyl)pyridine-2-yl)amino)-5-fluoropyrimidine-4-yl)-N,N-dimethylbenzothiazole-2-amine], the IC50 against CDK6 kinase worked out at 254 nM.
